Targets include Cytochrome P450 2D6 (Homo sapiens, UniProt P10635); Cytochrome P450 3A4 (Homo sapiens, UniProt P08684); Cytochrome P450 2C9 (Homo sapiens, UniProt P11712).
The target of another test is T1, Protein RecA (Mycobacterium tuberculosis, UniProt P9WHJ3).
T1 sequence (P9WHJ3 whole entry): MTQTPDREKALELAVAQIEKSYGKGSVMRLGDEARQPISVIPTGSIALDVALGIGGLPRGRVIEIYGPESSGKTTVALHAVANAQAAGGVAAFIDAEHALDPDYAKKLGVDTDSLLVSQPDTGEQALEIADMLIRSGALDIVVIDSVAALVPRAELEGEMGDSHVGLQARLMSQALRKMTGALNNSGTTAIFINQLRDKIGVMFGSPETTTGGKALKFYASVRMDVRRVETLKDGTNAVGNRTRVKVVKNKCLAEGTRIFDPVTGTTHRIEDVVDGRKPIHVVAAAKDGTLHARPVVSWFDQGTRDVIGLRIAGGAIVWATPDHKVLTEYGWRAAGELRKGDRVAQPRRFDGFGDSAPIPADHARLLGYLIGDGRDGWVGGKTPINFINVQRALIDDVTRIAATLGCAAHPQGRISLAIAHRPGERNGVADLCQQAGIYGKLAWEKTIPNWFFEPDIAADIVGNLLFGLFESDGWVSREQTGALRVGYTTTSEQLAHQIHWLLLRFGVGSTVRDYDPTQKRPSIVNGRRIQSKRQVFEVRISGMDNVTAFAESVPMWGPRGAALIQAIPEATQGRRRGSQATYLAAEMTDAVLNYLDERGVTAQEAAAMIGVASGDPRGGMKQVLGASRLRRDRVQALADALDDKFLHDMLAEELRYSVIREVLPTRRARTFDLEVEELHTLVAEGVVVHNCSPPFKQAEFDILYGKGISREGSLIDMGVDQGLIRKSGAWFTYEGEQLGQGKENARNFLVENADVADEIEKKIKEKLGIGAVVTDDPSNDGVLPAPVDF
Description: Fluorescence Cell-Free Homogeneous Dose Retest to Identify Inhibitors of RecA-Intein Splicing Activity. [Related pubchem assays (depositor defined):AID2097, AID2223, AID489010, AID492950]. The format is functional.

In test [1] the target is T2, Replicative DNA helicase DnaB (Mycobacterium tuberculosis, UniProt P9WMR3).
T2 sequence (P9WMR3 whole entry): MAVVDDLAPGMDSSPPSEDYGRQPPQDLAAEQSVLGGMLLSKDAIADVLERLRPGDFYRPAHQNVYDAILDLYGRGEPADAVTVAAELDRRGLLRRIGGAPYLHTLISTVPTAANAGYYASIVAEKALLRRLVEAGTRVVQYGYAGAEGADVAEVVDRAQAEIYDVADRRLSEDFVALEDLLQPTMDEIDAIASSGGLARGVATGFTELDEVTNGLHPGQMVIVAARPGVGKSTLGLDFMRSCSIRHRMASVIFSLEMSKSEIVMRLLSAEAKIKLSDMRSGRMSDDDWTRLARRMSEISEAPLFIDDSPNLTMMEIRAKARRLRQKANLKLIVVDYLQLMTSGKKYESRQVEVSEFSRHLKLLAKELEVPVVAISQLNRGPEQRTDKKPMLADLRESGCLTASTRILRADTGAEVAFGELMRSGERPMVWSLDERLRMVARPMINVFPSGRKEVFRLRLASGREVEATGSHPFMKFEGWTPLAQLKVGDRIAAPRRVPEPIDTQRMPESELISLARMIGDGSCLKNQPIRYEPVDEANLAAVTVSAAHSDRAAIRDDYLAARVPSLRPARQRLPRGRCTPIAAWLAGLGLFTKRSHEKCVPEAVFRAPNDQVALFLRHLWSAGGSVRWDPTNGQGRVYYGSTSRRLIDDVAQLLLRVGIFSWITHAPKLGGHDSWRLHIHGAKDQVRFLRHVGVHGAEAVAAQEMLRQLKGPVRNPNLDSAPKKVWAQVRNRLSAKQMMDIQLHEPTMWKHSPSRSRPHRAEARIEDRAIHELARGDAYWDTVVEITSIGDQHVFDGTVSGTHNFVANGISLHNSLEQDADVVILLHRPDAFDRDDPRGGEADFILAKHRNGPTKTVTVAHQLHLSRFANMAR
Description: DnaB intein splicing inhibitors, dose response, biochemical, cell-free fluorescence (AID 449749). The format is functional.

A further test deals with Genome polyprotein (dengue virus type 2, UniProt P29990). Description: Dengue-2 NS5 methyltransferase inhibitors, primary screen, biochemical, confirmation dose response (AID 588689). The format is functional.
Sequence of Genome polyprotein (P29990 2492-3391 limits assumed): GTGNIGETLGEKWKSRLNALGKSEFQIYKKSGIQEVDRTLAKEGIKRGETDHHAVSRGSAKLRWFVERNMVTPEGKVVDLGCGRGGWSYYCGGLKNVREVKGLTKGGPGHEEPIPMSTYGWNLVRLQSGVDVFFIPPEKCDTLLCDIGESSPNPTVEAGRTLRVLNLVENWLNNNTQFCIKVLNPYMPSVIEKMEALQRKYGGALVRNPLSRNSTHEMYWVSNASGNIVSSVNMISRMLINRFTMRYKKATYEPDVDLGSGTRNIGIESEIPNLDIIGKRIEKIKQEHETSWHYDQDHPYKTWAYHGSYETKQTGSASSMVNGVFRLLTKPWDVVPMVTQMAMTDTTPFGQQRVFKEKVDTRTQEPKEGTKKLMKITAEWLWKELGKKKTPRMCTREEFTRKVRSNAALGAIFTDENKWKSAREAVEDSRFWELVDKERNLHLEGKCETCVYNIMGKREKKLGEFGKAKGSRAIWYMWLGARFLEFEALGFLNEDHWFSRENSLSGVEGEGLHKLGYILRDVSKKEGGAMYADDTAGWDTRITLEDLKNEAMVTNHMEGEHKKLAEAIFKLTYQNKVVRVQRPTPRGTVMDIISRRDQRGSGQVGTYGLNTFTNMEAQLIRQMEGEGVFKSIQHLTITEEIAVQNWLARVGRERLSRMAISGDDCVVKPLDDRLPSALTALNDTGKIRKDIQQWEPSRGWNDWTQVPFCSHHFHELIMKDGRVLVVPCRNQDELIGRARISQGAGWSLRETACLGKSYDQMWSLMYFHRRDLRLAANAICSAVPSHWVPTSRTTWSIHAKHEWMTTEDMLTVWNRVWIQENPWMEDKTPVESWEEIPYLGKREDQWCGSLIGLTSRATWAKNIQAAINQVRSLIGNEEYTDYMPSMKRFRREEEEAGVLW
For another test, the target named is T3, Cytochrome P450 1A2 (Homo sapiens, UniProt P05177).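 Also: PubChem cytochrome P450 panel assay, CYP1A2 panel member.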
T3 sequence (P05177 whole entry): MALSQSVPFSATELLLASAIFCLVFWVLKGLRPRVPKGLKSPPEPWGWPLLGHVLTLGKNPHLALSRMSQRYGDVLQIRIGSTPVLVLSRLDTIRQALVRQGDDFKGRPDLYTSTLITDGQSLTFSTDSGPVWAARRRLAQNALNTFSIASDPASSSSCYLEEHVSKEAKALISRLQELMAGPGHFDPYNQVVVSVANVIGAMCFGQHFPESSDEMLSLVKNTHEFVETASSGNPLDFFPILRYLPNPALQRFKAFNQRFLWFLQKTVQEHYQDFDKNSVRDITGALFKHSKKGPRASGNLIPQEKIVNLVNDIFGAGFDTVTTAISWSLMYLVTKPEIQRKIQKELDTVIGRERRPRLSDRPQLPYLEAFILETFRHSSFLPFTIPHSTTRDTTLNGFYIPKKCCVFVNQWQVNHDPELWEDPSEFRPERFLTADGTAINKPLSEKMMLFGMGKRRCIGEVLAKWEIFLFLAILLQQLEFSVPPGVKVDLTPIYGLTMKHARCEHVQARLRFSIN

Test [2] in a line: NIH-3T3 fibroblast cytotoxicity, dose response, cytotoxicity control, cell-based, fluorescence, Alamar Blue, secondary assay (AID 2327).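 Also: NIH-3T3 mouse fibroblasts cultured with fluconazole at 8 µg/mL.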 The format is functional.
Test [3] addresses FAD-linked sulfhydryl oxidase ALR (Homo sapiens, UniProt P55789). Description: inhibitors of human ALR sulfhydryl oxidase, dose response, biochemical, H2O2 detection, luminescence, cherry-pick (AID 493248).
A short description of test [4]: C. albicans growth with fluconazole, confirmation, fluorescence, retest (AID 2467). It is filed as functional, cell-based.
For a further test, the system named is INS1. Description: beta cell apoptosis inhibitors, cytokine rescue, dose response, luminescence, retest (AID 449756).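 Also: cell death triggered by IL-1 beta plus TNF-alpha plus IFN-gamma mixture; protective hits raise ATP signal compared with cytokine alone wells.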 The format is functional, cell-based. The settings on record: Rattus norvegicus.
A short description of test [5]: HEp-2 cell cytotoxicity, dose response, cytotoxicity control for RSV inhibitor project, HTS (AID 2410). To be noted: human respiratory syncytial virus. It is filed as functional.
The target of test [6] is T4, RNA-binding protein pos-1 (Caenorhabditis elegans, UniProt G5EF15).
T4 sequence (G5EF15 whole entry): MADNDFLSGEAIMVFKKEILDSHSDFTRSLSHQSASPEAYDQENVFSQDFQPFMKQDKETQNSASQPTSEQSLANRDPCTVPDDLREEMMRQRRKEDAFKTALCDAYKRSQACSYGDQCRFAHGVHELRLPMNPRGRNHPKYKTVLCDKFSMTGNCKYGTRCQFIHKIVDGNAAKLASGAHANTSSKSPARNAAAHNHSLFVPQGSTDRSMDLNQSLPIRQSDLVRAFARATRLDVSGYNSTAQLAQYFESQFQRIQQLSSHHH
Description: inhibitors of POS-1/mex-3 RNA binding, dose response, biochemical, fluorescence polarization (AID 1964).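 Also: purified POS-1 fused to maltose binding protein made in E. coli; potency of compounds blocking POS-1 binding to fluorescent RNA.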

Test [7] has as its target T5, Zinc finger protein mex-5 (Caenorhabditis elegans, UniProt Q9XUB2).
T5 sequence (Q9XUB2 whole entry): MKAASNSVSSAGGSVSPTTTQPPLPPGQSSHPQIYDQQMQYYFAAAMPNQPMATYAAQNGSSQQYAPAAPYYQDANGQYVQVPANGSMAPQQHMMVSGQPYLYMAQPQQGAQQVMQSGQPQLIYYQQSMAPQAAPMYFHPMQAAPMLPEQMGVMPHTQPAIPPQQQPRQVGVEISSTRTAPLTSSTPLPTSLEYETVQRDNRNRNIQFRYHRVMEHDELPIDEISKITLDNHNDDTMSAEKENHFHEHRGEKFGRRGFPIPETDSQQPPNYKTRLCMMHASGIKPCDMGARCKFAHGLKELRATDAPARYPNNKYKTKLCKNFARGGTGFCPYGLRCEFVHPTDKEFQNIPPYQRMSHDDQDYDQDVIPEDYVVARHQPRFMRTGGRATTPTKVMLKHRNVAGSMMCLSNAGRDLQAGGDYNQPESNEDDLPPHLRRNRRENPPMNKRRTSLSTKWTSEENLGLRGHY
Description: MEX-5/TCR-2 RNA interaction inhibitors, dose response, biochemical, C. elegans, fluorescence polarization (AID 1960).

The target of the next test is Cytochrome P450 2C19 (Homo sapiens, UniProt P33261). Description: Cytochrome panel assay with activity outcomes. Panel member name: p450-cyp2c19 Compounds with AC50 equal or less than 10 uM are considered active. It is filed as functional. The settings on record: read-out: AC50.
Sequence of Cytochrome P450 2C19 (P33261 whole entry): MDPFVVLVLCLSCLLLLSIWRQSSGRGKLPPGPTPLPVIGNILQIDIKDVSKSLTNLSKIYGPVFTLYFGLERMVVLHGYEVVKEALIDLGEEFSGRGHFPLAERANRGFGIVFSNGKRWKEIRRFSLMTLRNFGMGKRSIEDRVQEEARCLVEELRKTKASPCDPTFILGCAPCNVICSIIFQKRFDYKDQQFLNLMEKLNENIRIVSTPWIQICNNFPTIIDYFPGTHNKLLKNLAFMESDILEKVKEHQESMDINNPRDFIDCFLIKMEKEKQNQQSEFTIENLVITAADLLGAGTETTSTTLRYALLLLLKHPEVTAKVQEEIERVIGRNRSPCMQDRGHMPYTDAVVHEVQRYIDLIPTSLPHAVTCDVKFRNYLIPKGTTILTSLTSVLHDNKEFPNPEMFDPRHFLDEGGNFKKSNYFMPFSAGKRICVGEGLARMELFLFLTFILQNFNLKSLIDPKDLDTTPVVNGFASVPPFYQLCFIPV

Molecules are shown by their SMILES. The source made the active and inactive calls.

Sequence of Cytochrome P450 3A4 (P08684 whole entry): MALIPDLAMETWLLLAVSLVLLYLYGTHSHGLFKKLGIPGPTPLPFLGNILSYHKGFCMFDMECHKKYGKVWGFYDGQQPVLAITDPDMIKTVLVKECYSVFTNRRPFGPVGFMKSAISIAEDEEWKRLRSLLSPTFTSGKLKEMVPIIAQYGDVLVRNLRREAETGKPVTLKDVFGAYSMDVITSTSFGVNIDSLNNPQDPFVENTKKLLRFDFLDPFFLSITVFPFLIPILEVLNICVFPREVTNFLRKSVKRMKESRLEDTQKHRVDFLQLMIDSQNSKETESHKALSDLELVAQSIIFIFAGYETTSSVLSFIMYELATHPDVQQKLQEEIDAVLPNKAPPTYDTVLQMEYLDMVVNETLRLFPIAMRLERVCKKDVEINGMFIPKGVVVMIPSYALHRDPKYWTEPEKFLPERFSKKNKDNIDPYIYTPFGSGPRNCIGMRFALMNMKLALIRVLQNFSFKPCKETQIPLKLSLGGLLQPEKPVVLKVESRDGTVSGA
Sequence of Cytochrome P450 2D6 (P10635 whole entry): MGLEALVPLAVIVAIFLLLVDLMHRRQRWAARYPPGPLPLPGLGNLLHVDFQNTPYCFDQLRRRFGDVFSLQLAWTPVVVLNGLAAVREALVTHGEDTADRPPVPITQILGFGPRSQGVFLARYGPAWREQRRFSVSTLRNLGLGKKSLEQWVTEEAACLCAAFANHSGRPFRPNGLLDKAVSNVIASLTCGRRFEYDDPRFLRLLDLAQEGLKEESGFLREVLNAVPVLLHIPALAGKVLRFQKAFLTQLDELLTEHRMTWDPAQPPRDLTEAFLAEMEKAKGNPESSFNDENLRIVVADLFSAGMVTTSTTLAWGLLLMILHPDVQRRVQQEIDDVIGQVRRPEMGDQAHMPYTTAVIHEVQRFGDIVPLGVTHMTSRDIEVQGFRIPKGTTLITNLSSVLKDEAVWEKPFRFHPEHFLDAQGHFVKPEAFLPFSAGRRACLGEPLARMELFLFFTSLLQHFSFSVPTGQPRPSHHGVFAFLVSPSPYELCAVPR
Sequence of FAD-linked sulfhydryl oxidase ALR (P55789 whole entry): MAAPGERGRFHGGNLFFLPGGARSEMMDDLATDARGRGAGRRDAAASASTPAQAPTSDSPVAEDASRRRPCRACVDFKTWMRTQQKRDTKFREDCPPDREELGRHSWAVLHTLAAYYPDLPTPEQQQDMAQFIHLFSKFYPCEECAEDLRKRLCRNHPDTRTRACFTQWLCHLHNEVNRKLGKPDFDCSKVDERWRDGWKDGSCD
Sequence of Cytochrome P450 2C9 (P11712 whole entry): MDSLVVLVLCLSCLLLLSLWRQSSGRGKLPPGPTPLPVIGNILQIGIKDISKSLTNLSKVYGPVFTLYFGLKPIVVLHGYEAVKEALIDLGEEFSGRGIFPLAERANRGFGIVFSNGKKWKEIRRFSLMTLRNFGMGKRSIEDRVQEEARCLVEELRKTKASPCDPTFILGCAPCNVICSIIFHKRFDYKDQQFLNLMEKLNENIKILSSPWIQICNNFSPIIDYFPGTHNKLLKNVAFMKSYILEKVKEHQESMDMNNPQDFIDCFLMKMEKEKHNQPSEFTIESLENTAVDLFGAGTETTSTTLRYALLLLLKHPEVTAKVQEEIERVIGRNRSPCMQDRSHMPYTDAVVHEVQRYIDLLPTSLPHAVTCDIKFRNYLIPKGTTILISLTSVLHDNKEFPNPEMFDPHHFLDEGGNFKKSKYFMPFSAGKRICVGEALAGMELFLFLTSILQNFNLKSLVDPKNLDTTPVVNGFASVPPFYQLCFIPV

`COc1ccc(N2C(=O)CC(N(CCc3ccccc3)C(=O)/C=C/C(=O)O)C2=O)cc1` (centres undefined): at Protein RecA, the EC50 was > 380 µM (inactive). Moreover, in test [1], the AC50 is > 380 µM (inactive).
In the case of `O[C@@H](C1=C/C(=C\c2ccncc2)c2ccccc21)c1ccncc1`, the AC50 on Cytochrome P450 2D6 was 1.58 µM (inconclusive).
For `COc1ccccc1CN1CCCC2(CCN(C(=O)c3c(C)noc3C)CC2)C1`, the AC50 on Cytochrome P450 2D6 was 12.6 µM (inconclusive); at Cytochrome P450 3A4 it was 10 µM (inconclusive).
Consider `CC1=NN(c2ccc(Cl)cc2)C(=O)C1`, for which, on Protein RecA, the EC50 was 2.67 µM (active). In addition, the AC50 in test [1] was 2.74 µM (active).
For `O=C1/C(=C/c2cccc(F)c2)SC(=S)N1NS(=O)(=O)c1ccccc1`, on Genome polyprotein, the IC50 is 30.6 µM (active).
As to `CCc1ccc(N(C(=O)c2ccoc2C)C(C(=O)NC2CCCC2)c2ccc(OC)cc2)cc1` (centres undefined), the AC50 on Cytochrome P450 2D6 is 15.8 µM (inconclusive); on Cytochrome P450 3A4, 1.26 µM (inconclusive).
As for `CCn1c2ccccc2c2cc(/N=C3/SC(CC(=O)Nc4ccccc4)C(=O)N3C)ccc21` (centres undefined), the AC50 at Cytochrome P450 2D6 is 7.08 µM (inconclusive); on Cytochrome P450 1A2, 3.16 µM (inconclusive).
Turning to `O=C(NCc1ccccc1Cl)c1ccc2c(=O)n(CCCN3CCCC3=O)c(=S)[nH]c2c1`, the AC50 is 22.4 µM (inconclusive) at Cytochrome P450 2D6 and 15.8 µM (inconclusive) on Cytochrome P450 3A4.
Consider `CCc1ccc(C2C(C#N)=C(N)Oc3[nH]nc(CC(=O)OC)c32)cc1` (centres undefined), for which, on Protein RecA, the EC50 was 8.36 µM (active). In [1], the AC50 was 13.8 µM (active).
Take `O=C1NN(c2ccc(Cl)c(Cl)c2)C(=O)/C1=C/c1ccc(-c2ccccc2C(=O)O)o1`: at Genome polyprotein, the IC50 is 7.41 µM (active). For the same compound, the EC50 in test [2] is > 160 µM (inactive). In addition, in [3], the AC50 was 0.26 µM (active).
With `O=C(NNc1ccc(Cl)cc1)C1CCC1`, the EC50 in test [2] was 48.3 µM (active); in test [4], > 38 µM (not active).
In the case of `CN1CCN(c2nc(-c3ccccc3C(F)(F)F)nc3ccccc23)CC1`, the AC50 on Cytochrome P450 2D6 was 39.8 µM (inconclusive); on Cytochrome P450 3A4, 20 µM (inconclusive).
On to `CN(Cc1ccccc1)C(=O)c1nc2ccccn2c1CN1CCCC1c1nccs1` (centres undefined), for which, in the test on INS1, the AC50 was > 260 µM (inactive).
Turning to `Cc1noc(C)c1C(=O)OCC(=O)NC(c1ccccc1)c1ccccc1`, the AC50 at Cytochrome P450 2D6 was 3.16 µM (inconclusive).
Regarding `O=C(c1ccco1)N1CCN(c2ncnc3c(-c4ccccc4)nsc23)CC1`, the EC50 is 108 µM (active) in test [2] and 9.83 µM (active) in test [4].
On to `COC(=O)N/N=C/c1ccc(-c2cc(Cl)cc(Cl)c2)o1`, for which the EC50 in test [2] is > 150 µM (inactive); in [4], 5.04 µM (active). Also, in test [5], the CC50 is > 50 µM (active).
On to `CCOC(=O)c1ccc(NC(=O)NCc2cccnc2)cc1`, for which the AC50 in the test on INS1 is 2.09 µM (active).
In the case of `O=S(=O)(O)c1cccc2cccc(Nc3ccccc3)c12`, the IC50 on Genome polyprotein was > 100 µM (active).
On to `Cc1cccc(N2CC(C(=O)OCC(=O)c3ccc(OC(=O)c4cccs4)cc3)CC2=O)c1C` (centres undefined), for which the concentration for a half-maximal effect (EC50) on Protein RecA was 25 µM (active). Also, in test [1], the AC50 is 97.7 µM (active).
Turning to `O=C(c1ccco1)N1CCC[C@@]2(CCN(c3ccccc3)C2)C1`, the concentration at half-maximal activity (AC50) on Cytochrome P450 2D6 was 20 µM (inconclusive).
With `COc1cc(C(c2c(C)[nH][nH]c2=O)c2c(C)[nH][nH]c2=O)cc([N+](=O)[O-])c1O`, the results for the EC50 (on Protein RecA; in [6]; in test [7]) were 0.248 µM (active), 7.63 µM (active) and 4.74 µM (active), respectively. For the same compound, the AC50 in test [1] was 0.42 µM (active).
As for `O=C(CN1C(=O)/C(=C/c2ccccc2)SC1=S)NNC(=O)c1ccccc1O`, the results for the EC50 in test [2] and in test [4] were > 160 µM (inconclusive) and > 38 µM (not active), respectively.
As to `CCn1c(SCC(=O)N2CCN(S(=O)(=O)c3ccccc3)CC2)nnc1-c1cccs1`, the results for the AC50 at Cytochrome P450 2C19 and on Cytochrome P450 2D6 were 22.4 µM (inconclusive) and 17.8 µM (inconclusive), respectively.
`CCOC(=O)c1nc(C)n(-c2ccc(Cl)cc2)n1`: the EC50 at Protein RecA was > 380 µM (inactive). The AC50 in [1] was > 380 µM (inactive).
Take `Cc1cc(C2C(C#N)=C(N)Oc3[nH]nc(C)c32)c(C)s1` (centres undefined): the EC50 at Protein RecA was 3.32 µM (active). The AC50 is 10 µM (inconclusive) on Cytochrome P450 2C9, 7.08 µM (inconclusive) on Cytochrome P450 3A4 and 10.9 µM (active) in test [1].

For the origin of these results see ChEMBL document CHEMBL1201862, “PubChem BioAssay data set” (2004).
